Legend:
[1] = test system: non-metastatic TE-ES bone tumor tissues; test: Non-metastatic ES bone tumor in the integrated platform with microfluidic perfusion, linsitinib; format: cell-based, human; conditions: 12 μM
Procedure: The TE-ES and cardiac tissues were then cultured in the integrated platform with perfusion of mixed media. Linsitinib was introduced into the reservoir and delivered to tissues via circulation of perfusate and diffusion into the tissues.
ES cells, when co-cultured with mesenchymal stem cells and exposed to physiological shear-stress in a perfusion bioreactor, can become resistant to IGF-1R inhibitors. Therefore, we evaluated the role of flow derived shear stress in this newly found resistance of non-metastatic TE-ES bone tumor tissues to the IGF-1R inhibitor linsitinib. Linsitinib was introduced into the platform (12 µM, 3 days), either via circulation or directly into the TE-ES tissue chamber (FIG. 34G), to distinguish effects of flow-derived stimuli from drug diffusion into the tissues.
Upon maturation, bone tumors in the platform were exposed to a 1:1 mixture of the bone tumor and cardiac tissue media, supplemented by 12 μM linsitinib in the treated groups. […]
Cell viability was analyzed using a previously established protocol. Cancer cell viability was measured for GFP-Luciferase labelled cancer cells using ONE-Glo luciferase substrate that was prepared according to manufacturer's protocol (Promega). […] Where noted, longitudinal cell viability was also assessed using luminescence, though at the cost of signal strength. […] Some of the IC50 values were determined using cell viability data generated using an MTT assay (RealTime-Glo™ MT Cell Viability Assay, Promega) that were analyzed according to manufacturer's protocol.
In order to confirm linsitinib mechanism of action in ES cells, both RD-ES and SK-N-MC monolayers were treated with 12 μM linsitinib for 6 hours, lysed, measured for protein quantity using a Pierce™ BCA Protein Assay Kit (ThermoFisher), and loaded equally onto a Human Phospho-IGF1R ELISA (RayBiotech) to semi-quantitatively determine phosphorylated levels of the IGF-1 receptor, according to manufacturer's instructions. Osteocalcin (OCN), osteopontin (OPN), and lactic acid dehydrogenase (LDH) secreted levels were all measured using a similar approach. […]

[2] = target: T1, IGF-1 receptor (Homo sapiens, UniProt P08069); test: Phospho-IGF1R ELISA in ES cell monolayers; format: cell-based; conditions: 12 μM for 6 hours
T1 construct: endogenous in cells; host or cells: RD-ES (ATCC HTB-166) and SK-N-MC (ATCC HTB-10) Ewing sarcoma cell lines

[3] = cited from earlier work
[4] = cited from earlier work; remark: listed apart in the source
[5] = test system: metastatic TE-ES (SK-N-MC); test: Metastatic engineered ES bone tumor (TE-ES) in isolated culture, linsitinib; format: cell-based, human; conditions: 12 μM
Excerpt: The effects of linsitinib were studied in an experiment performed according to the 3-week treatment cycle used in the clinical trial (3 days of drug administration followed by 4 days without the drug, in 3 cycles), with luminescence signal serving as an indicator of cancer cell viability within the TE-ES.
Determining the effects of linsitinib on ES cells and osteoblasts within the engineered ES bone tumors across a 3-week clinical drug treatment regimen is shown in FIGS. 33A-33B. […] Supernatants were collected from each individual sample across the duration of the drug treatments and were analyzed for osteoblast function (OCN, OPN) and for cytotoxicity (LDH) (mean±s.e.m., n=3).
Two weeks following the initiation of osteogenic differentiation, aggregates of ES tumor cells were prepared as described previously, using 0.3×10^6 cells per aggregate. After 1 week of culture, corresponding to the end of bone tissue culture (3 weeks), the primary ES cell aggregates were placed into the engineered bone constructs (3 aggregates per construct, placed apart of each other). Tumor models were established for two different types of primary ES cells: non-metastatic (RD-ES) and metastatic (SK-N-MC). Tissue engineered RD-ES and SK-N-MC tumors were cultured in the RPMI and EMEM media, respectively, supplemented with 10% FBS and 1% penicillin/streptomycin. Bone constructs cultured without tumor cell aggregates (TE-bone) in RPMI and EMEM media were used as controls.
Specifically, linsitinib was dissolved at a 10 mM concentration in DMSO (Corning) and mixed in with the respective cell medium at a […] concentration unless otherwise noted. Vehicle treatments involved just the addition of DMSO at identical volumes as a control. Tissues were randomly assigned to experimental groups. Medium was changed every day.
(§1) Cell viability was analyzed using a previously established protocol. Cancer cell viability was measured for GFP-Luciferase labelled cancer cells using ONE-Glo luciferase substrate that was prepared according to manufacturer's protocol (Promega). Samples were collected following 3, 7, and 21 days cycles of linsitinib treatment. Where noted, longitudinal cell viability was also assessed using luminescence, though at the cost of signal strength. Briefly, in vivo grade VivoGlo™ Luciferin (Promega) was made at a 200× stock concentration (30 mg/ml) in water, added to sample culture media at a 1:200 dilution, and scanned using a spectrophotometer (Biotek). Some of the IC50 values were determined using cell viability data generated using an MTT assay (RealTime-Glo™ MT Cell Viability Assay, Promega) that were analyzed according to manufacturer's protocol.
Osteocalcin (OCN), osteopontin (OPN), and lactic acid dehydrogenase (LDH) secreted levels were all measured using a similar approach. […] LDH secretion was determined using a Lactate Dehydrogenase Assay Kit (Colorimetric; Abcam).

[6] = test system: non-metastatic and metastatic GFP-luciferase ES cell lines (RD-ES, SK-N-MC); test: Luminescence viability of GFP-luciferase ES cell monolayers; format: cell-based, human; conditions: 12 μM over 72 hours; both the non-metastatic and metastatic cell lines
Procedure: MTT viability assay was used to determine drug toxicity, with luminescence generated by viable cells measured at the endpoint (10^4 cells per well, mean±s.e.m., n=3). […] In order to determine cancer cell viability, cells were lysed and treated with luciferin using a Bright-Glo™ assay, with subsequent luminescence measured (10^4 cells per well, mean±s.e.m., n=3).
as §1

T1 sequence (P08069 31-1367): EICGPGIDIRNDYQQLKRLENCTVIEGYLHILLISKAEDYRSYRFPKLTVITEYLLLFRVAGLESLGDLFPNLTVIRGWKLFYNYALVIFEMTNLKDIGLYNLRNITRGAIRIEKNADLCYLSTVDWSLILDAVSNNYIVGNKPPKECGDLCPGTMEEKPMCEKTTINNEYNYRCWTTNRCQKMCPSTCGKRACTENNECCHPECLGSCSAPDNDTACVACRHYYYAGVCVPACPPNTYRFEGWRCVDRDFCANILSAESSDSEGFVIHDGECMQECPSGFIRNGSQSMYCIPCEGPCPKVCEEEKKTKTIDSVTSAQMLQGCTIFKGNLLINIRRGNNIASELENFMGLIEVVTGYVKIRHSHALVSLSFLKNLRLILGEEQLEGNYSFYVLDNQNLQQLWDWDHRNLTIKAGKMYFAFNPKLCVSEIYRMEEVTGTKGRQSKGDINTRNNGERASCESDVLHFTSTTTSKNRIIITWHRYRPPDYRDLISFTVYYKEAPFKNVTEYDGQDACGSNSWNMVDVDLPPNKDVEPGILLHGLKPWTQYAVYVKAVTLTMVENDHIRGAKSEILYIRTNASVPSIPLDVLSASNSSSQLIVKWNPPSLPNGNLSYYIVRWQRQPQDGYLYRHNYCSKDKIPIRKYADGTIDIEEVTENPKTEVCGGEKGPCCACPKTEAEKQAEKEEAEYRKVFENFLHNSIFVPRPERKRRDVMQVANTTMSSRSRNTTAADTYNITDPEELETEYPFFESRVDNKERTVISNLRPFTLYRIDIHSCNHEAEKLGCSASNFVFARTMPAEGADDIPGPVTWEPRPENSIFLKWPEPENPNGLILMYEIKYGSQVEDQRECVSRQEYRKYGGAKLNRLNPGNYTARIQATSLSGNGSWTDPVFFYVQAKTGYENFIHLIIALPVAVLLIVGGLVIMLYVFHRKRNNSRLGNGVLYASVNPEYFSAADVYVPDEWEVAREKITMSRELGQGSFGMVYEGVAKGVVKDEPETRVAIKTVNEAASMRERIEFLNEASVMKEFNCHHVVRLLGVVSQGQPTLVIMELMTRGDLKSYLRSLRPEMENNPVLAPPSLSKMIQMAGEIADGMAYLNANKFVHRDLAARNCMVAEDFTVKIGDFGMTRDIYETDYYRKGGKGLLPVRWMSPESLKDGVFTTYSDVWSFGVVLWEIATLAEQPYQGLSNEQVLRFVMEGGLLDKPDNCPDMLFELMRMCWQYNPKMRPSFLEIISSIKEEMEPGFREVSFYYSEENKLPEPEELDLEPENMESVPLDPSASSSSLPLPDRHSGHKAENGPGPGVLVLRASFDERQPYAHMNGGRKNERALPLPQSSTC

levels of phosphorylated IGF-1R [2]: significant decreases
SMILES: C[C@]1(O)C[C@@H](c2nc(-c3ccc4ccc(-c5ccccc5)nc4c3)c3c(N)nccn32)C1 [linsitinib]
response to the drug (luminescence) ([1]; 3 days, directly into the tissue chamber (immediate exposure)): fast response
drug response (luminescence) ([1]; 3 days, perfused integrated platform): insignificant drug response
secretion of LDH, vehicle vs linsitinib treated ([1]; 72 hours, perfused integrated platform): no significant difference
clinical outcome in ES ([3]; Phase II clinical trial, no patients completing the trial): unable to stop progression of ES
atrial fibrillation ([3]; clinical trials of other types of cancer): 3.75-5%
half-life [4]: approximately 5 hours
cytotoxicity (LDH secretion) ([5]; 3-week regimen): spiked
osteocalcin secretion ([5]; 3-week regimen): decreased
cancer cell population (luminescence) across the clinical regimen ([5]; 21-day treatment regimen): decrease in drug efficacy, as the cancer cell population continued to expand
drug response (luminescence) ([5]; after 3 days): significant drug response
osteopontin secretion ([5]; throughout the 21 days): decreased
drug efficacy (luminescence viability) [6]: significant drug efficacy
